Experimental data: patent publication US11091478B2 (Fochon Pharmaceuticals, Ltd., priority 2017, dated 2021)

Experiments:
DOHH2 cells = assay: Cell proliferation assay (MTS), DOHH2 cells, 120 h; format: cell-based; settings: Homo sapiens, DOHH-2, 120 h
In short: (§1)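 Treatment lasts 72 h for RS4;11 and 120 h for DOHH2 cells seeded at 5000 per well in serum-containing RPMI-1640. A 2 h MTS step, halted with 10% SDS, precedes dual-wavelength absorbance reading and IC50 fitting.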

RS4;11 cells = assay: Cell proliferation assay (MTS), RS4;11 cells, 72 h; format: cell-based; settings: Homo sapiens, RS4-11, 72 h
In short: as §1

Compound	IC50 (RS4;11 cells)	IC50 (DOHH2 cells)
CC1(C)CCC(CN2CCN(c3ccc(C(=O)NS(=O)(=O)c4cc5c(c([N+](=O)[O-])c4)N[C@H](CCN4CCC(N=S(C)(C)=O)CC4)CO5)c(Oc4cnc5[nH]ccc5c4)c3)CC2)=C(c2ccc(Cl)cc2)C1 [Example 2-131, (R)-2-((1H-pyrrolo[2,3-b]pyridin-5-yl)oxy)-4-(4-((4′-chloro-5,5-dimethyl-3,4,5,6-tetra-hydro-[1,1′-biphenyl]-2-yl)methyl)piperazin-1-yl)-N-((3-(2-(4-((dimethyl(oxo)-λ^6-sulfa-nylidene)amino)piperidin-1-yl)ethyl)-5-nitro-3,4-dihydro-2H-benzo[b][1,4]oxazin-7-yl)sulfonyl)benzamide]	0.009 µM	0.039 µM
CO[C@H]1CC[C@H](OC[C@@H]2COc3cc(S(=O)(=O)NC(=O)c4ccc(N5CCN(CC6=C(c7ccc(Cl)cc7)CCC(C)(C)C6)CC5)cc4Oc4cnc5[nH]ccc5c4)cc([N+](=O)[O-])c3N2)CC1 [Example 2-252, 2-((1H-pyrrolo[2,3-b]pyridin-5-yl)oxy)-4-(4-((4′-chloro-4,4-dimethyl-3,4,5,6-tetrahydro-[1,1′-biphenyl]-2-yl)methyl)piperazin-1-yl)-N-(((R)-3-((((1r,4R)-4-methoxycyclo-hexyl)oxy)methyl)-5-nitro-3,4-dihydro-2H-benzo[b][1,4]oxazin-7-yl)sulfonyl)benzamide]	0.029 µM	0.083 µM
CC1(C)CCC(CN2CCN(c3ccc(C(=O)NS(=O)(=O)c4cc5c(c([N+](=O)[O-])c4)N[C@H](CNS(=O)(=O)C4CCOCC4)CO5)c(Oc4cnc5[nH]ccc5c4)c3)CC2)=C(c2ccc(Cl)cc2)C1 [Example 2-139, (R)-2-((1H-pyrolo[2,3-b]pyridin-5-yl)oxy)-4-(4-((4′-chloro-5,5-dimethyl-3,4,5,6-tetra-hydro-[1,1′-biphenyl]-2-yl)methyl)piperazin-1-yl)-N-((5-nitro-3-(((tetrahydro-2H-pyran)-4-sulfonamido)methyl)-3,4-dihdyro-2H-benzo[b][1,4]oxazin-7-yl)sulfonyl)benzamide]	0.088 µM	0.338 µM
CN(C)C[C@@H]1CSc2cc(S(=O)(=O)NC(=O)c3ccc(N4CCN(CC5=C(c6ccc(Cl)cc6)CC(C)(C)CC5)CC4)cc3Oc3cnc4[nH]ccc4c3)cc([N+](=O)[O-])c2N1 [Example 3-4, (R)-2-((1H-pyrrolo[2,3-b]pyridin-5-yl)oxy)-4-(4-((4′-chloro-5,5-dimethyl-3,4,5,6-tetra-hydro-[1,1′-biphenyl]-2-yl)methyl)piperazin-1-yl)-N-((3-((dimethylamino)methyl)-5-nitro-3,4-dihydro-2H-benzo[b][1,4]thiazin-7-yl)sulfonyl)benzamide]	0.012 µM	0.041 µM
C[C@H]1CN(C[C@H]2COc3cc(S(=O)(=O)NC(=O)c4ccc(N5CCN(CC6=C(c7ccc(Cl)cc7)CC(C)(C)CC6)CC5)cc4Oc4cnc5[nH]ccc5c4)cc([N+](=O)[O-])c3N2)CCO1 [Example 2-31, 2-((1H-pyrrolo[2,3-b]pyridin-5-yl)oxy)-4-(4-((4′-chloro-5,5-dimethyl-3,4,5,6-tetrahydro-[1,1′-biphenyl]-2-yl)methyl)piperazin-1-yl)-N-(((S)-3-(((S)-2-methylmorpholino)meth-yl)-5-nitro-3,4-dihydro-2H-benzo[b][1,4]oxazin-7-yl)sulfonyl)benzamide]	0.007 µM	0.018 µM
CC(=O)N1CCC([C@@H]2COc3cc(S(=O)(=O)NC(=O)c4ccc(N5CCN(CC6=C(c7ccc(Cl)cc7)CC(C)(C)CC6)CC5)cc4Oc4cnc5[nH]ccc5c4)cc([N+](=O)[O-])c3N2)CC1 [Example 2-224, (R)-2-((1H-pyrrolo[2,3-b]pyridin-5-yl)oxy)-N-((3-(1-acetylpiperidin-4-yl)-5-nitro-3,4-dihydro-2H-benzo[b][1,4]oxazin-7-yl)sulfo-nyl)-4-(4-((4′-chloro-5,5-dimethyl-3,4,5,6-tetrahydro-[1,1′-biphenyl]-2-yl)methyl)piper-azin-1-yl)benzamide]	0.004 µM	0.003 µM
CC(=O)N1CCN(C[C@H]2COc3cc(S(=O)(=O)NC(=O)c4ccc(N5CCN(CC6=C(c7ccc(Cl)cc7)CC(C)(C)CC6)CC5)cc4Oc4cnc5[nH]ccc5c4)cc([N+](=O)[O-])c3N2)CC1 [Example 2-96, (S)-2-((1H-pyrrolo[2,3-b]pyridin-5-yl)oxy)-N-((3-((4-acetylpiperazin-1-yl)methyl)-5-nitro-3,4-dihydro-2H-benzo[b][1,4]oxazin-7-yl)sulfonyl)-4-(4-((4′-chloro-5,5-dimethyl-3,4,5,6-tetrahydro-[1,1′-biphenyl]-2-yl)meth-yl)piperazin-1-yl)benzamide]	0.072 µM	0.085 µM
CC1(C)CCC(CN2CCN(c3ccc(C(=O)NS(=O)(=O)c4cc5c(c([N+](=O)[O-])c4)N[C@@H](Cc4ccccc4F)CO5)c(Oc4cnc5[nH]ccc5c4)c3)CC2)=C(c2ccc(Cl)cc2)C1 [Example 2-189, (S)-2-((1H-pyrrolo[2,3-b]pyridin-5-yl)oxy)-4-(4-((4′-chloro-5,5-dimethyl-3,4,5,6-tetra-hydro-[1,1′-biphenyl]-2-yl)methyl)piperazin-1-yl)-N-((3-(2-fluorobenzyl)-5-nitro-3,4-dihydro-2H-benzo[b][1,4]oxazin-7-yl)sulfo-nyl)benzamide]	0.078 µM	0.148 µM
C[C@H]1CN(CC[C@@H]2COc3cc(S(=O)(=O)NC(=O)c4ccc(N5CCN(CC6=C(c7ccc(Cl)cc7)CC(C)(C)CC6)CC5)cc4Oc4cnc5[nH]ccc5c4)cc([N+](=O)[O-])c3N2)CCO1 [Example 2-41, 2-((1H-pyrrolo[2,3-b]pyridin-5-yl)oxy)-4-(4-((4′-chloro-5,5-dimethyl-3,4,5,6-tetrahydro-[1,1′-biphenyl]-2-yl)methyl)piperazin-1-yl)-N-(((R)-3-(2-((S)-2-methylmorpholino)ethyl)-5-nitro-3,4-dihydro-2H-benzo[b][1,4]oxazin-7-yl)sulfonyl)benzamide]	0.002 µM	0.023 µM
CN1CCN(C[C@@H]2COc3cc(S(=O)(=O)NC(=O)c4ccc(N5CCN(CC6=C(c7ccc(Cl)cc7)CC(C)(C)CC6)CC5)cc4Oc4cnc5[nH]ccc5c4)cc([N+](=O)[O-])c3O2)CC1 [Example 5-4]	0.034 µM	0.013 µM

Stronger by IC50 (RS4;11 cells), values ahead:

IC50 (RS4;11 cells)	Compound	IC50 (DOHH2 cells)
0.001 µM	COC(=O)NC1CCN(C[C@@H]2COc3cc(S(=O)(=O)NC(=O)c4ccc(N5CCN(CC6=C(c7ccc(Cl)cc7)CC(C)(C)CC6)CC5)cc4Oc4cnc5[nH]ccc5c4)cc([N+](=O)[O-])c3N2)CC1 [Example 2-152, methyl (R)-(1-((7-(N-(2-((1H-pyrrolo[2,3-b]pyridin-5-yl)oxy)-4-(4-((4′-chloro-5,5-dimethyl-3,4,5,6-tetrahydro-[1,1′-biphenyl]-2-yl)meth-yl)piperazin-1-yl)benzoyl)sulfamoyl)-5-nitro-3,4-dihydro-2H-benzo[b][1,4]oxazin-3-yl)methyl)piperidin-4-yl)carbamate]	0.001 µM
0.001 µM	CC1(C)CCC(CN2CCN(c3ccc(C(=O)NS(=O)(=O)c4cc5c(c([N+](=O)[O-])c4)N[C@H](CCN4CCN(C6COC6)CC4)CO5)c(Oc4cnc5[nH]ccc5c4)c3)CC2)=C(c2ccc(Cl)cc2)C1 [Example 2-38, (R)-2-((1H-pyrrolo[2,3-b]pyridin-5-yl)oxy)-4-(4-((4′-chloro-5,5-dimethyl-3,4,5,6-tetra-hydro-[1,1′-biphenyl]-2-yl)methyl)piperazin-1-yl)-N-((5-nitro-3-(2-(4-(oxetan-3-yl)piperazin-1-yl)ethyl)-3,4-dihydro-2H-benzo [b][1,4]oxazin-7-yl)sulfonyl)benzamide]	0.027 µM
0.001 µM	CC1(C)CCC(CN2CCN(c3ccc(C(=O)NS(=O)(=O)c4cc5c(c([N+](=O)[O-])c4)N[C@H](CO[C@H]4CC[C@H](O)CC4)CO5)c(Oc4cnc5[nH]ccc5c4)c3)CC2)=C(c2ccc(Cl)cc2)C1 [Example 2-250, 2-((1H-pyrrolo[2,3-b]pyridin-5-yl)oxy)-4-(4-((4′-chloro-5,5-dimethyl-3,4,5,6-tetrahydro-[1,1′-biphenyl]-2-yl)methyl)piperazin-1-yl)-N-(((R)-3-((((1r,4R)-4-hydroxycyclo-hexyl)oxy)methyl)-5-nitro-3,4-dihydro-2H-benzo[b][1,4]oxazin-7-yl)sulfonyl)benzamide]	0.007 µM
0.001 µM	CC1(C)CCC(CN2CCN(c3ccc(C(=O)NS(=O)(=O)c4cc5c(c([N+](=O)[O-])c4)NC(C4CCC(O)CC4)CO5)c(Oc4cnc5[nH]ccc5c4)c3)CC2)=C(c2ccc(Cl)cc2)C1 (stereo not drawn) [Example 2-188, 2-((1H-pyrrolo[2,3-b]pyridin-5-yl)oxy)-4-(4-((4′-chloro-5,5-dimethyl-3,4,5,6-tetrahydro-[1,1′-biphenyl]-2-yl)methyl)piperazin-1-yl)-N-((3-(4-hydroxycyclohexyl)-5-nitro-3,4-dihydro-2H-benzo[b][1,4]oxazin-7-yl)sulfonyl)benzamide]	0.019 µM
0.001 µM	CC1(C)CCC(CN2CCN(c3ccc(C(=O)NS(=O)(=O)c4cc5c(c([N+](=O)[O-])c4)N[C@@H](CN=S(C)(C)=O)CO5)c(Oc4cnc5[nH]ccc5c4)c3)CC2)=C(c2ccc(Cl)cc2)C1 [Example 2-75, (S)-2-((1H-pyrrolo[2,3-b]pyridin-5-yl)oxy)-4-(4-((4′-chloro-5,5-dimethyl-3,4,5,6-tetra-hydro-[1,1′-biphenyl]-2-yl)methyl)piperazin-1-yl)-N-((3-(((dimethyl(oxo)-λ^6-sulfanyl-idene)amino)methyl)-5-nitro-3,4-dihydro-2H-benzo[b][1,4]oxazin-7-yl)sulfonyl)benza-mide]	0.064 µM
